Reference: US4105768A, “Hypotensive substituted 1,2,4-triazoles” (priority 1973, dated 1978)
Like-named read-outs stand apart in the source and are kept apart here.

What was measured:
[1] = test system: spontaneously hypertensive rats of the SHR/N strain; test: Antihypertensive effect in spontaneously hypertensive rats, oral; format: in vivo; conditions: Rattus norvegicus, 3 h; three consecutive daily oral doses; measured before and three hours after administration; unanesthetized SHR/N rats; read-out: effective antihypertensive dose, defined as the dose which reduced the mean arterial blood pressure more than 30 mm Hg
Method: The antihypertensive effects of the hydrochloride salt of the compound of the invention with the designation FLA 486 having the formula [drawing 25] have been compared with those of FLA 136 with the formula [drawing 26] in spontaneously hypertensive rats of the SHR/N strain (Mollegaard Hansens Avlslaboratorier A/S, Denmark). The animals were prepared for measurements of the arterial blood pressure through a catheter implanted into the abdominal aorta and exteriorized at the base of the neck. Groups of two rats were given three consecutive daily oral doses of the test compounds. Measurements were performed before and three hours after administration to the unanesthetized animal. The effective antihypertensive dose of FLA 486, defined as the dose which reduced the mean arterial blood pressure more than 30 mm Hg was 5-10 mg/kg. The corresponding value for FLA 136 was 5-10 mg/kg.

[2] = Acute toxicity in mice (LD50 i.p.); conditions: mouse, in vivo, ip
mice = test: Effect on the spontaneous motor activity of mice; format: in vivo, mouse; conditions: i.p., mice; compared to Wy-8678
Method: (§1) The effect on the spontaneous motor activity was tested in mice. Groups of six animals were given the test compounds intraperitoneally one and three hours before test. The animals were placed individually in an activity meter and the activity was recorded for ten minutes. The dose which reduced the spontaneous motor activity to 50 percent of that of control mice was calculated.

[3] = Effect on the spontaneous motor activity of mice; format: in vivo, mouse; conditions: mouse, in vivo, ip, read-out: Intraperitoneal dose which reduced the spontaneous motor activity of mice to 50 % of control values; for ED50 at 1 h: measurements one hour after administration; for ED50 at 3 h: measurements three hours after administration
Method: as §1

renal hypertensive rats = test: Antihypertensive effect (mean arterial blood pressure) in unanaesthetized renal hypertensive rats, oral; format: in vivo, rat; conditions: for Minimum daily oral dose with antihypertensive effects defined as the dose which reduced the mean arterial blood pressure more than 15 mm Hg in unanaesthetized renal hypertensive rats: three consecutive daily oral doses, measured before and three hours after administration
Method: The antihypertensive effects were tested in rats in which high blood pressure had been produced by removal of one kidney and restricting the blood flow to the remaining one two months before the experiments. The animals were prepared for measurements of the arterial blood pressure through a catheter implanted into the abdonimal aorta and exteriorized at the base of the neck. Groups of two rats were given three consecutive daily oral doses of the test compounds from the scale: 2.5, 5, 10, 20, and 40 mg/kg. Measurements were performed before and three hours after administration to the unanaesthetized animal. The minimum daily oral dose with antihypertensive effect was defined as the dose which reduced the mean arterial blood pressure more than 15 mm Hg.

anaesthetized rats = format: in vivo, rat

Row | Compound | minimal effective dose [1] [mg/kg] | LD50 [2] [mg/kg] | sedative effects (in words) (mice) | ED50 at 1 h [3] [mg/kg] | ED50 at 3 h [3] [mg/kg] | antihypertensive effect (in words) (renal hypertensive rats; oral, compared with Wy-8678) | Minimum daily oral dose with antihypertensive effects defined as the dose which reduced the mean arterial blood pressure more than 15 mm Hg in unanaesthetized renal hypertensive rats (renal hypertensive rats) [mg/kg] | initial rise in blood pressure (anaesthetized rats; rat, in vivo, iv, 40 mg/kg) | initial rise in blood pressure (anaesthetized rats; intravenous, consecutive increasing doses, anaesthetized rats, highest dose tested of test compound 40 mg/kg)
1 | CNn1cnnc1NN=Cc1c(Cl)cccc1Cl [FLA 486] | 5 to 10 |  |  |  |  |  |  |  | 
2 | Cl.Nn1cnnc1NN=Cc1c(Cl)cccc1Cl [FLA 136, 4-Amino-3-(2,6-dichlorobenzylidenehydrazino)-1,2,4-triazole hydrochloride] | 5 to 10 | 340 | lack of sedative effects | 90 | 170 | of the same degree as that of one of the present known most active hypotensive compounds | 2.5 to 5 | did not produce an initial rise in blood pressure even at 40 mg/kg | 
3 | NC(N)=NN=Cc1c(Cl)cccc1Cl [Wy-8678, reference compound] |  | 70 |  | 3 | 3 |  | 2.5 |  | produced a large increase in arterial pressure even at doses as low as 0.01 mg/kg
